These results are taken from ChEMBL document CHEMBL1154627, “Structure-activity relationship studies of targeting ligands against breast cancer cells” (J Med Chem, 2009).

Activity calls are given as the source filed them. The calls are words filed in the database; no cut-off is given here. Where a SMILES comes first, the peptide text is derived from it. Bridges are numbered along the chain shown (N, C = ends). [ ]: non-standard residue; d: D form. Tyr(3-NO2) = N[C@@H](Cc1ccc(O)c([N+](=O)[O-])c1)C(=O)O; Hyp = O=C(O)[C@@H]1C[C@@H](O)CN1

The first experiment addresses T1, Integrin alpha-3 (Homo sapiens) (UniProt P26006).
T1 sequence (whole entry): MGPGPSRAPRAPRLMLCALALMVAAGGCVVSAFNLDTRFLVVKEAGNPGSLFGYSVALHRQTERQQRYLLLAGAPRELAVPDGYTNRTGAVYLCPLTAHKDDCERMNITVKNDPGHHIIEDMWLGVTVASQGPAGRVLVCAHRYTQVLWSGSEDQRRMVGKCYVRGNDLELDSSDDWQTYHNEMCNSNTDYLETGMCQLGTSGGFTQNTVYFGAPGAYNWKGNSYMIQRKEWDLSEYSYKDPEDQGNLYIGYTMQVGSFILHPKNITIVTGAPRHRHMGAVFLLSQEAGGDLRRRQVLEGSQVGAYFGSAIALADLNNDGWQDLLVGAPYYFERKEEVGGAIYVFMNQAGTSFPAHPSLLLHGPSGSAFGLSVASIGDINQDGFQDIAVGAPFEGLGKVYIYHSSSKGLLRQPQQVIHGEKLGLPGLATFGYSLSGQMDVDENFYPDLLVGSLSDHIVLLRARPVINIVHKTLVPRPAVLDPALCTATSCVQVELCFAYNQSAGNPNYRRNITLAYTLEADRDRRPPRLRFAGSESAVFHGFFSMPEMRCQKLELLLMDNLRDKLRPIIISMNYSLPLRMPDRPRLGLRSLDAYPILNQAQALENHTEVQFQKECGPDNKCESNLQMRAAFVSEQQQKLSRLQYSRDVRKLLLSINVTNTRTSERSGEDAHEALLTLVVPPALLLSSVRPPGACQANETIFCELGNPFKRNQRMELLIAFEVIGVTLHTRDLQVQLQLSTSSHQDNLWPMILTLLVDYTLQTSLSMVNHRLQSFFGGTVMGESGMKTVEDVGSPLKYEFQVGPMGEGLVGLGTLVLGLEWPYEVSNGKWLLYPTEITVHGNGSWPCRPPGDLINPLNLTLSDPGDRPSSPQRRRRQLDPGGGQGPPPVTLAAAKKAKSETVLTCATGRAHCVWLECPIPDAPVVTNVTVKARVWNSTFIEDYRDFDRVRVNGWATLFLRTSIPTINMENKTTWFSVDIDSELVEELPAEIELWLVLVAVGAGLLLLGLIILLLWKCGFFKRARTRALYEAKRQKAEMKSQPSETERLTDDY
The experiment can be described thus: Binding affinity to alpha3 integrin receptor in human MDA-MB-231 cells by fluorescent microscopy. Format: cell-based.
`NC(=O)C[C@@H]1NC(=O)[C@@H]2C[C@@H](O)CN2C(=O)CNC(=O)[C@H](c2cc(F)cc(F)c2)NC(=O)CNC(=O)[C@@H](CC(=O)O)NC(=O)[C@H](N)CSSC[C@H](C(N)=O)NC1=O`: the outcome was Active.

System in the next experiment: not listed separately
The experiment can be described thus: Binding affinity to alpha3beta1 integrin receptor in human MDA-MB-231 cells assessed as inhibition of cell binding to immobilized LXY1 peptide by cell adherence assay. The format is cell-based.
Usually IC50 stands for the midpoint of a concentration-inhibition curve. Regarding `NC(=O)C[C@@H]1NC(=O)[C@@H]2C[C@@H](O)CN2C(=O)CNC(=O)[C@H](c2cc(F)cc(F)c2)NC(=O)CNC(=O)[C@@H](CC(=O)O)NC(=O)[C@H](N)CSSC[C@H](C(N)=O)NC1=O`, the half-maximal inhibitory concentration (IC50) turned out to be 2.1 µM. Regarding `COC(=O)c1ccc(NC(=O)N[C@@H]2CSSC[C@H](C(N)=O)NC(=O)[C@H](CC(N)=O)NC(=O)[C@@H]3C[C@@H](O)CN3C(=O)CNC(=O)[C@H](Cc3ccc(O)c([N+](=O)[O-])c3)NC(=O)CNC(=O)[C@@H](CC(=O)O)NC2=O)cc1`, the IC50 was above 25 µM. As to `NC(=O)C[C@@H]1NC(=O)[C@@H]2C[C@@H](O)CN2C(=O)CNC(=O)[C@H](Cc2ccc(O)c([N+](=O)[O-])c2)NC(=O)CNC(=O)[C@@H](CC(=O)O)NC(=O)[C@H](N)CSSC[C@H](C(N)=O)NC1=O` (H-[dC][dD]G[Tyr(3-NO2)]G[Hyp]N[dC]-NH2; disulfide 1-8), the IC50 came to 7.4 µM. In the case of `COc1ccc(NC(=O)N[C@@H]2CSSC[C@H](C(N)=O)NC(=O)[C@H](CC(N)=O)NC(=O)[C@@H]3C[C@@H](O)CN3C(=O)CNC(=O)[C@H](Cc3ccc(O)c([N+](=O)[O-])c3)NC(=O)CNC(=O)[C@@H](CC(=O)O)NC2=O)cc1OC`, the IC50 is above 25 µM. As to `NC(=O)C[C@@H]1NC(=O)[C@@H]2C[C@@H](O)CN2C(=O)CNC(=O)[C@H](c2ccccc2F)NC(=O)CNC(=O)[C@@H](CC(=O)O)NC(=O)[C@H](N)CSSC[C@H](C(N)=O)NC1=O`, the half-maximal inhibitory concentration (IC50) is above 25 µM. Consider `NC(=O)C[C@@H]1NC(=O)[C@@H]2C[C@@H](O)CN2C(=O)CNC(=O)[C@H](c2cccc([N+](=O)[O-])c2)NC(=O)CNC(=O)[C@@H](CC(=O)O)NC(=O)[C@H](N)CSSC[C@H](C(N)=O)NC1=O`, for which the IC50 stood at 3.1 µM. For the compound `NC(=O)C[C@@H]1NC(=O)[C@@H]2C[C@@H](O)CN2C(=O)CNC(=O)[C@H](Cc2ccc(O)c([N+](=O)[O-])c2)NC(=O)CNC(=O)[C@@H](CC(=O)O)NC(=O)[C@H](NCc2cccc([N+](=O)[O-])c2)CSSC[C@H](C(N)=O)NC1=O`, the IC50 was above 25 µM. Still for that read-out and setting: then `NC(=O)C[C@@H]1NC(=O)[C@@H]2C[C@@H](O)CN2C(=O)CNC(=O)[C@H](c2c(F)c(F)c(F)c(F)c2F)NC(=O)CNC(=O)[C@@H](CC(=O)O)NC(=O)[C@H](N)CSSC[C@H](C(N)=O)NC1=O`, with 11.7 µM. The same measure, in the same setting: the figure for `NC(=O)C[C@@H]1NC(=O)[C@@H]2C[C@@H](O)CN2C(=O)CNC(=O)[C@H](Cc2ccc(O)c([N+](=O)[O-])c2)NC(=O)CNC(=O)[C@@H](CC(=O)O)NC(=O)[C@H](NC(=O)Nc2ccc(Cl)cc2)CSSC[C@H](C(N)=O)NC1=O` is above 25 µM; for `CCCCCCN(CCCCCC)[C@@H]1CSSC[C@H](C(N)=O)NC(=O)[C@H](CC(N)=O)NC(=O)[C@@H]2C[C@@H](O)CN2C(=O)CNC(=O)[C@H](Cc2ccc(O)c([N+](=O)[O-])c2)NC(=O)CNC(=O)[C@@H](CC(=O)O)NC1=O` it is above 25 µM; for `NC(=O)C[C@@H]1NC(=O)[C@@H]2C[C@@H](O)CN2C(=O)CNC(=O)[C@H](Cc2ccc(O)c([N+](=O)[O-])c2)NC(=O)CNC(=O)[C@@H](CC(=O)O)NC(=O)[C@H](NC(=O)Nc2ccccc2)CSSC[C@H](C(N)=O)NC1=O` it is above 25 µM. For `NC(=O)C[C@@H]1NC(=O)[C@@H]2C[C@@H](O)CN2C(=O)CNC(=O)[C@H](c2ccc(F)cc2)NC(=O)CNC(=O)[C@@H](CC(=O)O)NC(=O)[C@H](N)CSSC[C@H](C(N)=O)NC1=O`, the IC50 was found to be 23.7 µM.

Consider `NC(=O)C[C@@H]1NC(=O)[C@@H]2C[C@@H](O)CN2C(=O)CNC(=O)[C@H](Cc2ccc(O)c([N+](=O)[O-])c2)NC(=O)CNC(=O)[C@@H](CC(=O)O)NC(=O)[C@H](NC(=O)Nc2ccc([N+](=O)[O-])cc2)CSSC[C@H](C(N)=O)NC1=O`, for which the IC50 was above 25 µM. Take `NC(=O)C[C@@H]1NC(=O)[C@@H]2C[C@@H](O)CN2C(=O)CNC(=O)[C@H](Cc2ccc(O)c(I)c2)NC(=O)CNC(=O)[C@@H](CC(=O)O)NC(=O)[C@H](N)CSSC[C@H](C(N)=O)NC1=O`: the IC50 was above 25 µM. For the compound `NC(=O)C[C@@H]1NC(=O)[C@@H]2C[C@@H](O)CN2C(=O)CNC(=O)[C@H](Cc2cc(I)c(O)c(I)c2)NC(=O)CNC(=O)[C@@H](CC(=O)O)NC(=O)[C@H](N)CSSC[C@H](C(N)=O)NC1=O`, the IC50 is above 25 µM.

Regarding `NC(=O)C[C@@H]1NC(=O)[C@@H]2C[C@@H](O)CN2C(=O)CNC(=O)[C@@H]2C[C@@H](c3ccccc3)CN2C(=O)CNC(=O)[C@@H](CC(=O)O)NC(=O)[C@H](N)CSSC[C@H](C(N)=O)NC1=O`, the 50% inhibitory concentration (IC50) was above 25 µM. As for `NC(=O)C[C@@H]1NC(=O)[C@@H]2C[C@@H](O)CN2C(=O)CNC(=O)[C@H](Cc2ccc(O)c([N+](=O)[O-])c2)NC(=O)CNC(=O)[C@@H](CC(=O)O)NC(=O)[C@H](NCC2CCCCC2)CSSC[C@H](C(N)=O)NC1=O`, the IC50 was above 25 µM. As to `NC(=O)C[C@@H]1NC(=O)[C@@H]2C[C@@H](O)CN2C(=O)CNC(=O)[C@@H]2C[C@@H](F)CN2C(=O)CNC(=O)[C@@H](CC(=O)O)NC(=O)[C@H](N)CSSC[C@H](C(N)=O)NC1=O`, the IC50 turned out to be 18.5 µM.

A further experiment has as its system Mus musculus. The experiment can be described thus: In vivo binding affinity to alpha3 integrin receptor in human MDA-MB-231 cells xenografted in iv dosed athymic nude mouse nu/nu by fluorescent imaging. The format is functional, organism-based.
For the compound `NC(=O)C[C@@H]1NC(=O)[C@@H]2C[C@@H](O)CN2C(=O)CNC(=O)[C@H](c2cc(F)cc(F)c2)NC(=O)CNC(=O)[C@@H](CC(=O)O)NC(=O)[C@H](N)CSSC[C@H](C(N)=O)NC1=O`, the result was Active.

The subject of the next experiment is Mus musculus. The experiment is described as follows: Ex vivo binding affinity to alpha3 integrin receptor in human MDA-MB-231 cells xenografted in iv dosed athymic nude mouse nu/nu by fluorescent imaging. Format: functional, organism-based. For orientation: In xenograft studies the graft and the host belong to different species.
As for `NC(=O)C[C@@H]1NC(=O)[C@@H]2C[C@@H](O)CN2C(=O)CNC(=O)[C@H](c2cc(F)cc(F)c2)NC(=O)CNC(=O)[C@@H](CC(=O)O)NC(=O)[C@H](N)CSSC[C@H](C(N)=O)NC1=O`, the outcome was Active.
